The values that follow come from PMC5148673 (European journal of medicinal chemistry, 2016).

Common to all, as to assay type: cell-based, human
Test [1] concerns BT-474 cells. Nature of the test: Flow cytometry cell cycle analysis. In general terms: A flow cytometer gives signals particle by particle.
Test [2] has as its system SKBR-3 cells. Nature of the test: Confocal microscopy intracellular distribution, SKBR-3. To be noted: SKBR-3, 5 μM, 30 min, 37 °C.
Test [3] relates to MCF-7 cells. Nature of the test: Confocal microscopy intracellular distribution, MCF-7. To be noted: MCF-7, 30 min, 4 h, 24 h incubation.

For `N=C(N)NCCC[C@H](N)C(=O)N[C@@H](CC(=O)N[C@@H](Cc1ccccc1)C(=O)O)c1cccc2ccccc12` [Compound 5, Arg-aminonaphthylpropionic acid-Phe], the “effect on cell cycle inhibition” value in test [1] is reported as “no significant effect on cell cycle inhibition”. As to `COc1cccc2c1C(=O)c1c(O)c3c(c(O)c1C2=O)C[C@@](O)(C(=O)CO)C[C@@H]3O[C@H]1C[C@H](N)[C@H](O)[C@H](C)O1` [DOX, Doxorubicin], the “DOX fluorescence distribution in cells” value in test [2] is “strong DOX fluorescence in both the nucleus and cytoplasm”. Moreover, in test [3], the “DOX fluorescence in cells” value was “fluorescence was seen in 30 min”.
